Source: PMC3494675, “Structure-Function Analysis of the Glioma Targeting NFL-TBS.40-63 Peptide Corresponding to the Tubulin-Binding Site on the Light Neurofilament Subunit” (PLoS ONE, 2012)
Square brackets hold non-standard residues; d marks the D form. Peptide text beside a SMILES is read from it. * marks the point of attachment. Biotin = O=C1N[C@H]2[C@H](CS[C@H]2CCCCC(=O)*)N1; pS = N[C@@H](COP(=O)(O)O)C(=O)O

How the values were obtained:
[1] = test system: T98G human glioblastoma cells; assay: Peptide incorporation into T98G cells (immunocytochemistry, cell counting); format: cell-based; details: 6 hours; for Peptide incorporation (% of cells): T98G cells, 10 µM biotinylated peptide, Alexa-labeled avidin/streptavidin fluorescence microscopy, minimum 200 cells per experiment, mean ± S.E.M., triplicated; for Cell penetration / internalization in T98G cells (in words): 10 µM, immunocytochemistry, compared to original NFL-TBS.40-63
Description: (§1) Cells containing the biotinylated peptide were detected using Alexa-labeled avidin (green fluorescence) and those displaying a normal or a destroyed MT network were detected with an anti-tubulin antibody (red fluorescence) ( Figure 1A-B ). Then, we counted a minimum of 200 cells per slide containing or not the peptide, and with a normal or destroyed microtubule network ( Figure 1C ). As illustrated on Figure 1A glioblastoma cells contain a rich MT network. […] Cells were plated on cover slips and cultured in media containing biotinylated peptides (10 μM) for 6 hours. […] The cells were then incubated during 10 min in a 0.5% triton X-100 permeabilization solution, and washed 3 times in PBS. Next, they were incubated in a blocking solution (PBS 5% BSA) for 15 min, then incubated with mouse anti-ß-tubulin antibody (Sigma) 1/200 overnight. Tubulin and biotinylated peptides were localized using respectively Alexa 568 nm anti-mouse antibody and streptavidin Alexa 488 nm (Molecular Probes) 1/200 for 1 hour, followed by washing in PBS. […] Sigma) for 5 min, washed twice with PBS, then cover slips were mounted with an antifading solution. Observations were performed with an Olympus confocal microscope (BX50) using Fluoview.3.1. Software or a Leica DMI6000 inverted microscope and analyzed with Metamorph 7.1.7.0. software. We counted cells containing the peptide and cells displaying a destroyed MT network. Experiments were repeated at least three times, and a minimum of 200 cells was scored during each experiment.

[2] = test system: T98G human glioblastoma cells; assay: Disintegration of the microtubule network in T98G cells (anti-tubulin immunostaining, cell counting); format: cell-based; details: 6 hours; for Disintegration of MT (% of cells): T98G cells, 10 µM biotinylated peptide, anti-tubulin immunostaining, minimum 200 cells per experiment, mean ± S.E.M., triplicated
Description: as §1

Row | Compound | Peptide incorporation (% of cells) [1] | Disintegration of MT (% of cells) [2] | Cell penetration / internalization in T98G cells (in words) [1] | Effect on MT network of T98G / glioma cells (in words) ([2]; 10 µM, immunocytochemistry)
1 | CC(C)[C@H](NC(=O)[C@H](CO)NC(=O)[C@@H](NC(=O)[C@H](CO)NC(=O)[C@H](CO)NC(=O)[C@H](CO)NC(=O)[C@@H](NC(=O)[C@@H]1CCCN1C(=O)[C@H](C)NC(=O)[C@H](CO)NC(=O)[C@H](Cc1ccc(O)cc1)NC(=O)[C@H](CO)NC(=O)[C@H](CO)NC(=O)[C@H](Cc1ccc(O)cc1)NC(=O)CCCC[C@@H]1SC[C@@H]2NC(=O)N[C@@H]21)C(C)C)C(C)C)C(=O)N[C@@H](CCCNC(=N)N)C(=O)N[C@@H](CCCNC(=N)N)C(=O)N[C@@H](CO)C(=O)N[C@@H](Cc1ccc(O)cc1)C(=O)N[C@@H](CO)C(=O)N[C@@H](CO)C(=O)N[C@@H](CO)C(=O)N[C@@H](CO)C(=O)NCC(=O)N[C@@H](CO)C(N)=O [Leu12Val] (Biotin-YSSYSAPVSSSVSVRRSYSSSSGS-NH2) | 58.6±5.0 % of cells | 43.8±1.7 % of cells | – | –
2 | CC(C)C[C@H](NC(=O)[C@H](CO)NC(=O)[C@H](CO)NC(=O)[C@H](CO)NC(=O)[C@@H](NC(=O)[C@@H]1CCCN1C(=O)[C@H](C)NC(=O)[C@H](CO)NC(=O)[C@H](Cc1ccc(O)cc1)NC(=O)[C@H](CO)NC(=O)[C@H](CO)NC(=O)[C@H](Cc1ccc(O)cc1)NC(=O)CCCC[C@@H]1SC[C@@H]2NC(=O)N[C@@H]21)C(C)C)C(=O)N[C@@H](CO)C(=O)N[C@H](C(=O)N[C@@H](CCCNC(=N)N)C(=O)N[C@@H](CCCNC(=N)N)C(=O)N[C@@H](CO)C(=O)N[C@@H](Cc1ccc(O)cc1)C(=O)N[C@@H](C)C(=O)N[C@@H](CO)C(=O)N[C@@H](CO)C(=O)N[C@@H](CO)C(=O)NCC(=O)N[C@@H](CO)C(N)=O)C(C)C [Ser19Ala] (Biotin-YSSYSAPVSSSLSVRRSYASSSGS-NH2) | 5.2±0.7 % of cells | 14.5±2.7 % of cells | – | –
3 | CC(C)C[C@H](NC(=O)[C@H](CO)NC(=O)[C@H](CO)NC(=O)[C@H](CO)NC(=O)[C@@H](NC(=O)[C@@H]1CCCN1C(=O)[C@H](C)NC(=O)[C@H](CO)NC(=O)[C@H](Cc1ccc(O)cc1)NC(=O)[C@H](CO)NC(=O)[C@H](CO)NC(=O)[C@H](Cc1ccc(O)cc1)NC(=O)CCCC[C@@H]1SC[C@@H]2NC(=O)N[C@@H]21)C(C)C)C(=O)N[C@@H](CO)C(=O)N[C@H](C(=O)N[C@@H](C)C(=O)N[C@@H](CCCNC(=N)N)C(=O)N[C@@H](CO)C(=O)N[C@@H](Cc1ccc(O)cc1)C(=O)N[C@@H](CO)C(=O)N[C@@H](CO)C(=O)N[C@@H](CO)C(=O)N[C@@H](CO)C(=O)NCC(=O)N[C@@H](CO)C(N)=O)C(C)C [Arg15Ala] (Biotin-YSSYSAPVSSSLSVARSYSSSSGS-NH2) | 18.1±1.3 % of cells | 25.5±6.3 % of cells | – | –
4 | CC(C)C[C@H](NC(=O)[C@H](CO)NC(=O)[C@H](CO)NC(=O)[C@H](CO)NC(=O)[C@@H](NC(=O)[C@@H]1CCCN1C(=O)[C@H](C)NC(=O)[C@H](CO)NC(=O)[C@H](Cc1ccc(O)cc1)NC(=O)[C@H](CO)NC(=O)[C@H](CO)NC(=O)[C@H](Cc1ccc(O)cc1)NC(=O)CCCC[C@@H]1SC[C@@H]2NC(=O)N[C@@H]21)C(C)C)C(=O)N[C@@H](CO)C(=O)N[C@H](C(=O)N[C@@H](CCCNC(=N)N)C(=O)N[C@@H](CCCNC(=N)N)C(=O)N[C@@H](COP(=O)(O)O)C(=O)N[C@@H](Cc1ccc(O)cc1)C(=O)N[C@@H](COP(=O)(O)O)C(=O)N[C@@H](CO)C(=O)N[C@@H](CO)C(=O)N[C@@H](CO)C(=O)NCC(=O)N[C@@H](CO)C(N)=O)C(C)C [Ser17,19SerP] (Biotin-YSSYSAPVSSSLSVRR[pS]Y[pS]SSSGS-NH2) | 32±2.1 % of cells | 11.0±3.0 % of cells | decreased internalization | not altered
5 | CC(C)C[C@H](NC(=O)[C@H](CO)NC(=O)[C@H](C)NC(=O)[C@H](CO)NC(=O)[C@@H](NC(=O)[C@@H]1CCCN1C(=O)[C@H](C)NC(=O)[C@H](CO)NC(=O)[C@H](Cc1ccc(O)cc1)NC(=O)[C@H](CO)NC(=O)[C@H](CO)NC(=O)[C@H](Cc1ccc(O)cc1)NC(=O)CCCC[C@@H]1SC[C@@H]2NC(=O)N[C@@H]21)C(C)C)C(=O)N[C@@H](CO)C(=O)N[C@H](C(=O)N[C@@H](CCCNC(=N)N)C(=O)N[C@@H](CCCNC(=N)N)C(=O)N[C@@H](CO)C(=O)N[C@@H](Cc1ccc(O)cc1)C(=O)N[C@@H](CO)C(=O)N[C@@H](CO)C(=O)N[C@@H](CO)C(=O)N[C@@H](CO)C(=O)NCC(=O)N[C@@H](CO)C(N)=O)C(C)C [Ser10Ala] (Biotin-YSSYSAPVSASLSVRRSYSSSSGS-NH2) | 34.5±0 % of cells | 32.9±1.9 % of cells | penetrated in cells significantly although to a much lesser extent than the wt peptide | –
6 | CC(C)C[C@H](NC(=O)[C@H](CO)NC(=O)[C@H](CO)NC(=O)[C@H](CO)NC(=O)[C@@H](NC(=O)[C@@H]1CCCN1C(=O)[C@H](C)NC(=O)[C@H](CO)NC(=O)[C@H](C)NC(=O)[C@H](CO)NC(=O)[C@H](CO)NC(=O)[C@H](Cc1ccc(O)cc1)NC(=O)CCCC[C@@H]1SC[C@@H]2NC(=O)N[C@@H]21)C(C)C)C(=O)N[C@@H](CO)C(=O)N[C@H](C(=O)N[C@@H](CCCNC(=N)N)C(=O)N[C@@H](CCCNC(=N)N)C(=O)N[C@@H](CO)C(=O)N[C@@H](Cc1ccc(O)cc1)C(=O)N[C@@H](CO)C(=O)N[C@@H](CO)C(=O)N[C@@H](CO)C(=O)N[C@@H](CO)C(=O)NCC(=O)N[C@@H](CO)C(N)=O)C(C)C [Tyr4Ala] (Biotin-YSSASAPVSSSLSVRRSYSSSSGS-NH2) | 5.3±2.4 % of cells | 24.4±4.6 % of cells | – | –
7 | CC(C)C[C@H](NC(=O)[C@H](CO)NC(=O)[C@H](CC(C)C)NC(=O)[C@H](CO)NC(=O)[C@H](CO)NC(=O)[C@H](CO)NC(=O)[C@@H](NC(=O)[C@@H]1CCCN1C(=O)[C@H](C)NC(=O)[C@H](CO)NC(=O)[C@H](Cc1ccc(O)cc1)NC(=O)[C@H](CO)NC(=O)[C@H](CO)NC(=O)[C@H](Cc1ccc(O)cc1)NC(=O)CCCC[C@@H]1SC[C@@H]2NC(=O)N[C@@H]21)C(C)C)C(=O)N[C@@H](CCCNC(=N)N)C(=O)N[C@@H](CCCNC(=N)N)C(=O)N[C@@H](CO)C(=O)N[C@@H](Cc1ccc(O)cc1)C(=O)N[C@@H](CO)C(=O)N[C@@H](CO)C(=O)N[C@@H](CO)C(=O)N[C@@H](CO)C(=O)NCC(=O)N[C@@H](CO)C(N)=O [Val14Leu] (Biotin-YSSYSAPVSSSLSLRRSYSSSSGS-NH2) | 44.2±2.2 % of cells | 39.2±2.4 % of cells | – | –
